In patent publication US8030298B2, “17β-HSD1 and STS inhibitors” (Abbott Products GmbH, priority 2005, dated 2011) one finds inhibition data, which are given here for 7 molecules.

The target in this test is T1, recombinant human 17β-hydroxysteroid dehydrogenase type 1 (Homo sapiens, UniProt P14061).
T1 construct: made in house; host or cells: Sf9 insect cells (baculovirus, Bac to Bac Expression System)
T1 sequence (P14061 1-328): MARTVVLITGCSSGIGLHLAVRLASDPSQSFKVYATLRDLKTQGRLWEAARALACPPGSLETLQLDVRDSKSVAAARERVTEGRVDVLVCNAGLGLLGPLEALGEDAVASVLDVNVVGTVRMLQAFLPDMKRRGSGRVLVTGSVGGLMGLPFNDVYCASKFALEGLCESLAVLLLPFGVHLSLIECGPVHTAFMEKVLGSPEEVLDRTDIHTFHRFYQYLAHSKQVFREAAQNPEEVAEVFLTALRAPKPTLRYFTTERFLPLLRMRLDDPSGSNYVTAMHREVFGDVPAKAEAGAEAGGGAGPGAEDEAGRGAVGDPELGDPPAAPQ
Description: Inhibition of recombinant human 17β-hydroxysteroid dehydrogenase type 1 (3H-estrone to estradiol conversion, HPLC). In kind it is biochemical. To be noted: read-out: Inhibition of rec. 17β-HSD1 (% inhibition); for inhibition at 0.1 µM: inhibitor concentration 100 nM; for inhibition at 1 µM: 0.5 h, inhibitor concentration 1 μm. The protocol:
17β-HSD1 purification: Recombinant baculovirus was generated by the “Bac to Bac Expression System” (Invitrogen). Recombinant bacmid was transfected to Sf9 insect cells using “Cellfectin Reagent” (Invitrogen). 60 h later cells were harvested; the microsomal fraction was isolated as described by Puranen et al. (1994). Aliquots were stored frozen until determination of enzymatic activity.
Assay—Inhibition of recombinant human 17β-hydroxysteroid dehydrogenase type 1: Recombinant protein (0.1 μg/ml) was incubated in 20 mM KH2PO4 pH 7.4 with 30 nM 3H-estrone and 1 mM NADPH for 30 min at RT, in the presence of potential inhibitors at concentrations of 1 μM or 0.1 μM. Inhibitor stock solutions were prepared in DMSO. Final concentration of DMSO was adjusted to 1% in all samples. The enzyme reaction was stopped by addition of 10% trichloroacetic acid (final concentration). Samples were centrifuged in a microtiter plate at 4000 rpm for 10 min. Supernatants were applied to reverse phase HPLC on a Waters Symmetry C18 column, equipped with a Waters Sentry Guard column. Isocratic HPLC runs were performed at RT at a flow rate of 1 ml/min of acetonitrile:water 48:52 as running solvent. Radioactivity was monitored in the eluate by a Packard Flow Scintillation Analyzer. Total radioactivity for estrone and estradiol were determined in each sample and percent conversion of estrone to estradiol was calculated according to the following formula:
Percent inhibition was calculated as follows: % inhibition=100−% conversion

Turning to `CCCc1cc2c(cc1O)CC[C@H]1[C@@H]3[C@H](CCCC(=O)N4CCOCC4)CC(=O)[C@@]3(C)CC[C@H]21` [Example 6, 3-Hydroxy-15β-(4-morpholin-4-yl-4-oxo-butyl)-2-propyl-estra-1,3,5(10)-trien-17-one], the inhibition at 0.1 µM stood at 37.9%.

On to `C[C@]12CC[C@@H]3c4ccc(O)cc4CC[C@H]3[C@@H]1[C@H](CCCC(=O)N1CCOCC1)CC2(F)F` [Example 90], for which the inhibition at 0.1 µM worked out at 63.5%.

`C[C@]12CC[C@@H]3c4ccc(O)cc4CC[C@H]3[C@@H]1[C@@H](CCCC(=O)N1CCOCC1)CC2(F)F` [Example 91, 4-(17,17-Difluoro-3-hydroxy-estra-1,3,5(10)-trien-15α-yl)-1-morpholin-4-yl-butan-1-one]: the inhibition at 0.1 µM was 32%.

As to `Cc1cnc(NC(=O)CC[C@@H]2CC(F)(F)[C@@]3(C)CC[C@@H]4c5ccc(O)cc5CC[C@H]4[C@H]23)s1` [Example 93, 3-(17,17-Difluoro-3-hydroxy-estra-1,3,5(10)-trien-15β-yl)-N-(5-methyl-thiazol-2-yl)-propionamide], the inhibition at 0.1 µM was 59.5%.

In the case of `C[C@]12CC[C@@H]3c4ccc(O)cc4CC[C@H]3[C@@H]1[C@H](CCCC(=O)N1CCOCC1)c1cn[nH]c12` [Example 162, 3-Hydroxy-15β-(4-morpholin-4-yl-4-oxo-butyl)-estra-1,3,5(10)-trien-[16,17-c]-pyrazole], the inhibition at 1 µM was found to be 93% and the inhibition at 0.1 µM was found to be 63%.

As for `C[C@]12CC[C@@H]3c4ccc(OS(N)(=O)=O)cc4CC[C@H]3[C@@H]1[C@H](CCCC(=O)N1CCOCC1)CC2=O` [Example 163, 3-Sulphamate-15β-(4-morpholin-4-yl-4-oxo-butyl)-estra-1,3,5(10)-trien-17-one], the inhibition at 1 µM was found to be 43% and the inhibition at 0.1 µM is 10%.

Turning to `C[C@]12CC[C@@H]3c4ccc(OS(=O)(=O)O)cc4CC[C@H]3[C@@H]1[C@H](CCCC(=O)N1CCOCC1)CC2=O` [Example 164, 3-Sulphate-15β-(4-morpholin-4-yl-4-oxo-butyl)-estra-1,3,5(10)-trien-17-one], the inhibition at 1 µM is 27% and the inhibition at 0.1 µM came to 3%.

For orientation: inhibition means how much of the control response was suppressed.
